Test results reported in the kinase profiling compilation of Christmann-Franck et al. (2016).

Legend:
Test in all cases: radiometric filter-binding kinase assay
LCK (mouse) = settings: accession and sequence are those of the human protein
PHKG1 (human) = PHKG1 (human) (UniProt Q16816)
MKNK1 (human) = MKNK1 (human) (UniProt Q9BUB5); settings: compound 0.1 µM
CSNK2A1 (human) = CSNK2A1 (human) (UniProt P68400)
MAPK10 (human) = MAPK10 (human) (UniProt P53779)
[1] = system: AKT2 (human), P31751 [S474D]
CaMK1 (human) = CaMK1 (human) (UniProt Q14012)
YES1 (human) = YES1 (human) (UniProt P07947)
Sequence of YES1 (human) (P07947 whole entry, looked up): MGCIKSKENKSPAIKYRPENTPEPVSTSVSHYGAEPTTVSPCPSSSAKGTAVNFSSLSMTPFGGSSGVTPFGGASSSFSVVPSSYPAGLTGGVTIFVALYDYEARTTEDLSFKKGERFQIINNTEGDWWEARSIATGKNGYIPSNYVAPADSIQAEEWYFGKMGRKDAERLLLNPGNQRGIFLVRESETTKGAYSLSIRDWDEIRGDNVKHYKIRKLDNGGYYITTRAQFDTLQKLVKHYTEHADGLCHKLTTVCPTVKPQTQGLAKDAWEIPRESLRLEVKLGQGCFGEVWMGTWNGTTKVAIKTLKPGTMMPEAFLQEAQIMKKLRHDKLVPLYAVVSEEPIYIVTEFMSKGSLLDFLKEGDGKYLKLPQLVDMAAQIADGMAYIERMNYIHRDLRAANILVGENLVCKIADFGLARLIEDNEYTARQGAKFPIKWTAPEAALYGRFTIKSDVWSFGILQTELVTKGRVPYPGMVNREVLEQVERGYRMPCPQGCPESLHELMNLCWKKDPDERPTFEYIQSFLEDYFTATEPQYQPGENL

MARK4 (human) = MARK4 (human) (UniProt Q96L34)
Sequence of MARK4 (human) (Q96L34 whole entry, looked up): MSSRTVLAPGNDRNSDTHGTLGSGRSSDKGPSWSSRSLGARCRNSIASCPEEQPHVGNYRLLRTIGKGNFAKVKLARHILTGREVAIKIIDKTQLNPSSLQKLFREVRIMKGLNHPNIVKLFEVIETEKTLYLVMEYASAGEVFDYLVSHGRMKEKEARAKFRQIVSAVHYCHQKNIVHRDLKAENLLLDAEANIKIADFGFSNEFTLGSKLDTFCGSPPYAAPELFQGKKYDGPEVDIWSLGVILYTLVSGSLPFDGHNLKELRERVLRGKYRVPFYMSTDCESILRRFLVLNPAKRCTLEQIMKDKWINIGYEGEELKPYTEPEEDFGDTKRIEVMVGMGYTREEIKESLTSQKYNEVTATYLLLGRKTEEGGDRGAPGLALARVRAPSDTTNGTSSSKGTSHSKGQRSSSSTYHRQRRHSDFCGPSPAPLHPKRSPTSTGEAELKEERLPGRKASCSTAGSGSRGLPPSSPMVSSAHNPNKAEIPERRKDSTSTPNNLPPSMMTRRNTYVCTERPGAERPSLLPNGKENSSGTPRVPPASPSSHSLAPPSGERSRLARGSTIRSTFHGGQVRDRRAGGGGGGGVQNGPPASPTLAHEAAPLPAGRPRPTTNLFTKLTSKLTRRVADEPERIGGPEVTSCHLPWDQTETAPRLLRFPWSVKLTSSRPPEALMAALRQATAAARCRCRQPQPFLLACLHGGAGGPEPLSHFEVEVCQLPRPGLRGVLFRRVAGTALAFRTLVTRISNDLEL

PAK4 (human) = PAK4 (human) (UniProt O96013)
IGF1R (human) = IGF1R (human) (UniProt P08069); settings: compound 1.0 µM
AURKB (human) = AURKB (human) (UniProt Q96GD4)
Sequence of AURKB (human) (Q96GD4 whole entry, looked up): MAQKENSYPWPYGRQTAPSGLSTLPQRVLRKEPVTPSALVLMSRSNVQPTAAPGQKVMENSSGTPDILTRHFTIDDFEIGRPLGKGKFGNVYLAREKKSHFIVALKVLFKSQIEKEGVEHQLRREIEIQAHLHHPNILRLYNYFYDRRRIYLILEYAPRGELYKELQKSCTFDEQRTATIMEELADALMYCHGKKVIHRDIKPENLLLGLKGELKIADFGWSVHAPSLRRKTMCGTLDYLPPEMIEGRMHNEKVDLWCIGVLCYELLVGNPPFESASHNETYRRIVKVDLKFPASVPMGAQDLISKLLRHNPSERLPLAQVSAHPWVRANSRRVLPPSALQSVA

SYK (human) = SYK (human) (UniProt P43405)
CHEK1 (human) = CHEK1 (human) (UniProt O14757)
EPHB3 (human) = EPHB3 (human) (UniProt P54753); settings: compound 0.1 µM
RIPK2 (human) = RIPK2 (human) (UniProt O43353); settings: compound 1.0 µM
NUAK1 (human) = NUAK1 (human) (UniProt O60285)
PRKCZ (human) = PRKCZ (human) (UniProt Q05513)
MAP3K11 (human) = MAP3K11 (human) (UniProt Q16584)
NTRK1 (human) = NTRK1 (human) (UniProt P04629); settings: compound 1.0 µM
MAP3K9 (human) = MAP3K9 (human) (UniProt P80192)
INSRR (human) = INSRR (human) (UniProt P14616)
Sequence of INSRR (human) (P14616 whole entry, looked up): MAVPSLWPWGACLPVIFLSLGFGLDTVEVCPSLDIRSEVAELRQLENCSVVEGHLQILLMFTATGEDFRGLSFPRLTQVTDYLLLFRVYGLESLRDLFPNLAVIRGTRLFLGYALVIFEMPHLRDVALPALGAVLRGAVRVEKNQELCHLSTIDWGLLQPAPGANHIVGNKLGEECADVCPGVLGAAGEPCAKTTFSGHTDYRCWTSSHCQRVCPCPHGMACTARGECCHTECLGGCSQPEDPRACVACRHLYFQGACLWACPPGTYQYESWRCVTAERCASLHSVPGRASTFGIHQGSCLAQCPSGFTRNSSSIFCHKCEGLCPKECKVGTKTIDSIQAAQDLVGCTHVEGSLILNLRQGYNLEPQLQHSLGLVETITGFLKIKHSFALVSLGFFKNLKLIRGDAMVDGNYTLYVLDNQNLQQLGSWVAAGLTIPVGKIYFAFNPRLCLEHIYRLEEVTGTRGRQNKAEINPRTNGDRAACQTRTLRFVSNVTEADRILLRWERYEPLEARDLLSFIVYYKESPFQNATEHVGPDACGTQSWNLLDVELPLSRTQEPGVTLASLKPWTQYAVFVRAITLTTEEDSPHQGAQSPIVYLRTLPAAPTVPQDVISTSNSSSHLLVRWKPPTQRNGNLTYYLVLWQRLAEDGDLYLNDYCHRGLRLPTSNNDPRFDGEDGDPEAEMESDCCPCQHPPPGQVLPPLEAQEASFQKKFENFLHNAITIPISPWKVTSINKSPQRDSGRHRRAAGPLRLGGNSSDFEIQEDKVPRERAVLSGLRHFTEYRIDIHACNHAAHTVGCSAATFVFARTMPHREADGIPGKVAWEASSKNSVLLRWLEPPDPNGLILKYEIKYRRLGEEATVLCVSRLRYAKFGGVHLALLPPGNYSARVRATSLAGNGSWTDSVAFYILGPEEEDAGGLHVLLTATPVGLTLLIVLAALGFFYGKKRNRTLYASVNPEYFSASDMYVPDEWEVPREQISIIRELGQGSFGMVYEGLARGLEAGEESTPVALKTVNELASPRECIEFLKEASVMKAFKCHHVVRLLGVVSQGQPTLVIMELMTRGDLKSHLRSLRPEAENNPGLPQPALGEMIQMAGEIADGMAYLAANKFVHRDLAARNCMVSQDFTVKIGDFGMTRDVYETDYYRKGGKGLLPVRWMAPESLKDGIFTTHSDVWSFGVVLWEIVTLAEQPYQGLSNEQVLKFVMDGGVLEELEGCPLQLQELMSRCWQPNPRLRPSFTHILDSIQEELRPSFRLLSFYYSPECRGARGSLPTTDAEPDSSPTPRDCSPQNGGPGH

DYRK1A (human) = DYRK1A (human) (UniProt Q13627)
MAPK13 (human) = MAPK13 (human) (UniProt O15264)
Sequence of MAPK13 (human) (O15264 whole entry, looked up): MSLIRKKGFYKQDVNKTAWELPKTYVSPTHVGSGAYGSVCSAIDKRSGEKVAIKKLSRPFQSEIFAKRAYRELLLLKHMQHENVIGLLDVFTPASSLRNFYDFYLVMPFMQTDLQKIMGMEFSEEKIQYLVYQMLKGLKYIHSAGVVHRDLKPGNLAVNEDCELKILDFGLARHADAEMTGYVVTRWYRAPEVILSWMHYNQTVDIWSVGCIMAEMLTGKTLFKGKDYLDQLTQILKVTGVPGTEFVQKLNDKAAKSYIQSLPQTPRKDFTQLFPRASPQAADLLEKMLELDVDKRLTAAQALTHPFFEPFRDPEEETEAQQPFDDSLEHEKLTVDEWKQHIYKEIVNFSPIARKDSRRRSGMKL

JAK2 JH1 JH2 (human) = JAK2 JH1 JH2 (human) (UniProt O60674)
MST4 (human) = MST4 (human) (UniProt Q9P289)
PRKAA1 or PRKAA2 (rat) = settings: accession and sequence are those of the human protein
SRC (human) = SRC (human) (UniProt P12931)
PRKACA (human) = PRKACA (human) (UniProt P17612)
CDK2 CCNA2 (human) = CDK2 CCNA2 (human) (UniProt P20248+P24941)
MINK1 (human) = MINK1 (human) (UniProt Q8N4C8)
INSR (human) = INSR (human) (UniProt P06213); settings: compound 0.1 µM
MARK3 (human) = MARK3 (human) (UniProt P27448)
Sequence of MARK3 (human) (P27448 whole entry, looked up): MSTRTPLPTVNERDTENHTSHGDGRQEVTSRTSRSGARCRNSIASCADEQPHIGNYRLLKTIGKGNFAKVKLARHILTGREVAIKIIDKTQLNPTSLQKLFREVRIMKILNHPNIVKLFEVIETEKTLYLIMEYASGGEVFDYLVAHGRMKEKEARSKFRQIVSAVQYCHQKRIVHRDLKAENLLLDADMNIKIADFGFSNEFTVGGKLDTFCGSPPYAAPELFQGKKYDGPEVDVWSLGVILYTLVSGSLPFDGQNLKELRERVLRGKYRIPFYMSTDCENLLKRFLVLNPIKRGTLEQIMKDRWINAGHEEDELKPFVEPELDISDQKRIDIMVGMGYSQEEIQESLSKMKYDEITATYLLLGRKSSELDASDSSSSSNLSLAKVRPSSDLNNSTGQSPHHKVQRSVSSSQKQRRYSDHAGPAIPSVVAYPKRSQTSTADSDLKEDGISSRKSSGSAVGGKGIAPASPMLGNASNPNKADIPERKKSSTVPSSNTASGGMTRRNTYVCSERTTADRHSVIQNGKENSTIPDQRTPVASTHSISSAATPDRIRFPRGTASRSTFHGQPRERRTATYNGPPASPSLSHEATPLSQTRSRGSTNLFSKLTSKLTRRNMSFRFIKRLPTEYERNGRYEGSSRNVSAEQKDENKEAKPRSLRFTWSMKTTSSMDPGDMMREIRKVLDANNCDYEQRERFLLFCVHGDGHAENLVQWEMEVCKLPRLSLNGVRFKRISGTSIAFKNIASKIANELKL

CAMKK2 (human) = CAMKK2 (human) (UniProt Q96RR4)
MAP2K1 (human) = MAP2K1 (human) (UniProt Q02750)
Sequence of MAP2K1 (human) (Q02750 whole entry, looked up): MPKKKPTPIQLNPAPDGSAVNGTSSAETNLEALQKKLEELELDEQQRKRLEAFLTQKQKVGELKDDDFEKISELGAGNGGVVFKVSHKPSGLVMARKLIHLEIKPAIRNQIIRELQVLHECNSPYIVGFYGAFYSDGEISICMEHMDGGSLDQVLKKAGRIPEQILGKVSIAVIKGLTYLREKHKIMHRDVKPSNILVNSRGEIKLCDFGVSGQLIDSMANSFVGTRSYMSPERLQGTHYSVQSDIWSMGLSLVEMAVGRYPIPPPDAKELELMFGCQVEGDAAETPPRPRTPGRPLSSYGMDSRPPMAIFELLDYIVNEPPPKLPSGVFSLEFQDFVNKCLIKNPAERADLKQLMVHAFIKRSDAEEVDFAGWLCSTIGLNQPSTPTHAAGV

PIM2 (human) = PIM2 (human) (UniProt Q9P1W9)

Sequence of PHKG1 (human) (Q16816 whole entry, looked up): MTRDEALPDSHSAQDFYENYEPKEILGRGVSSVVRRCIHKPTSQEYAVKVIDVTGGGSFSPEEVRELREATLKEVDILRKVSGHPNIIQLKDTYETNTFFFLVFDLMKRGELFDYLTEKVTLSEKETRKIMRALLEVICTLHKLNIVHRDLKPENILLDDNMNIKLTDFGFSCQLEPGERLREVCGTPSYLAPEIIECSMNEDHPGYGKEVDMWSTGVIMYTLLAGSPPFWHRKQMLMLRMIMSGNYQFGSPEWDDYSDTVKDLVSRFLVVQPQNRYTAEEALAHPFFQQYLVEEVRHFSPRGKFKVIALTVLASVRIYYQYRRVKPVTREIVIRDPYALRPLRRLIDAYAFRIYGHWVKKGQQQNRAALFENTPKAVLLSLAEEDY

residual activity (LCK (mouse); compound 0.1 µM): 95% | residual activity (LCK (mouse); compound 1.0 µM): 101% | residual activity (PHKG1 (human); compound 0.1 µM): 94% | residual activity (PHKG1 (human); compound 1.0 µM): 83% | residual activity (MKNK1 (human)): 84% | residual activity (CSNK2A1 (human); compound 0.1 µM): 80% | residual activity (CSNK2A1 (human); compound 1.0 µM): 81% | residual activity (MAPK10 (human); compound 0.1 µM): 15% | residual activity (MAPK10 (human); compound 1.0 µM): 16% | residual activity ([1]; compound 0.1 µM): 93% | residual activity ([1]; compound 1.0 µM): 106% | residual activity (CaMK1 (human); compound 0.1 µM): 87% | residual activity (CaMK1 (human); compound 1.0 µM): 92% | residual activity (YES1 (human); compound 0.1 µM): 80% | residual activity (YES1 (human); compound 1.0 µM): 58% | residual activity (MARK4 (human); compound 0.1 µM): 85% | residual activity (MARK4 (human); compound 1.0 µM): 83% | residual activity (PAK4 (human); compound 0.1 µM): 84% | residual activity (PAK4 (human); compound 1.0 µM): 66% | residual activity (IGF1R (human)): 102% | residual activity (AURKB (human); compound 0.1 µM): 74% | residual activity (AURKB (human); compound 1.0 µM): 73% | residual activity (SYK (human); compound 0.1 µM): 89% | residual activity (SYK (human); compound 1.0 µM): 72% | residual activity (CHEK1 (human); compound 0.1 µM): 74% | residual activity (CHEK1 (human); compound 1.0 µM): 88% | residual activity (EPHB3 (human)): 101% | residual activity (RIPK2 (human)): 42% | residual activity (NUAK1 (human); compound 0.1 µM): 35% | residual activity (NUAK1 (human); compound 1.0 µM): 82% | residual activity (PRKCZ (human); compound 0.1 µM): 112% | residual activity (PRKCZ (human); compound 1.0 µM): 103% | residual activity (MAP3K11 (human); compound 0.1 µM): 79% | residual activity (MAP3K11 (human); compound 1.0 µM): 59% | residual activity (NTRK1 (human)): 82% | residual activity (MAP3K9 (human); compound 0.1 µM): 72% | residual activity (MAP3K9 (human); compound 1.0 µM): 39% | residual activity (INSRR (human); compound 0.1 µM): 72% | residual activity (INSRR (human); compound 1.0 µM): 64% | residual activity (DYRK1A (human); compound 0.1 µM): 97% | residual activity (DYRK1A (human); compound 1.0 µM): 85% | residual activity (MAPK13 (human); compound 0.1 µM): 106% | residual activity (MAPK13 (human); compound 1.0 µM): 100% | residual activity (JAK2 JH1 JH2 (human); compound 0.1 µM): 85% | residual activity (JAK2 JH1 JH2 (human); compound 1.0 µM): 77% | residual activity (MST4 (human); compound 0.1 µM): 98% | residual activity (MST4 (human); compound 1.0 µM): 104% | residual activity (PRKAA1 or PRKAA2 (rat); compound 0.1 µM): 92% | residual activity (PRKAA1 or PRKAA2 (rat); compound 1.0 µM): 87% | residual activity (SRC (human); compound 0.1 µM): 93% | residual activity (SRC (human); compound 1.0 µM): 72% | residual activity (PRKACA (human); compound 0.1 µM): 97% | residual activity (PRKACA (human); compound 1.0 µM): 108% | residual activity (CDK2 CCNA2 (human); compound 0.1 µM): 85% | residual activity (CDK2 CCNA2 (human); compound 1.0 µM): 72% | residual activity (MINK1 (human); compound 0.1 µM): 92% | residual activity (MINK1 (human); compound 1.0 µM): 69% | residual activity (INSR (human)): 81% | residual activity (MARK3 (human); compound 0.1 µM): 101% | residual activity (MARK3 (human); compound 1.0 µM): 76% | residual activity (CAMKK2 (human); compound 0.1 µM): 87% | residual activity (CAMKK2 (human); compound 1.0 µM): 35% | residual activity (MAP2K1 (human); compound 0.1 µM): 98% | residual activity (MAP2K1 (human); compound 1.0 µM): 113% | residual activity (PIM2 (human); compound 0.1 µM): 96% | residual activity (PIM2 (human); compound 1.0 µM): 102%
Compound: CN(C)C/C=C/C(=O)Nc1cccc(C(=O)Nc2ccc(Nc3nccc(-c4cccnc4)n3)cc2)c1
